Assay results as given in patent US20060034925A1, “Tumor targeting drug-loaded particles” (priority 2004, published 2006).

Legend:
[1] = tested on: Hs766T; experiment: cytotoxicity of paclitaxel, MTT assay; assay type: cell-based; conditions: Homo sapiens, read-out: concentration required to produce 50% cytotoxicity (IC50), 96 hour treatment, dissolved in water
Method: (§1) Drug effect was measured using the microtetrazolium dye reduction (MTT) assay.

[2] = tested on: MIA-PaCa; experiment: cytotoxicity of paclitaxel, MTT assay; assay type: cell-based; conditions: Homo sapiens, MIA PaCa-2, read-out: concentration required to produce 50% cytotoxicity (IC50), 96 hour treatment, dissolved in water
Method: as §1

[3] = tested on: PANC1; experiment: cytotoxicity of paclitaxel, MTT assay; assay type: cell-based; conditions: Homo sapiens, PANC-1, read-out: concentration required to produce 50% cytotoxicity (IC50), 96 hour treatment, dissolved in water
Method: as §1

[4] = tested on: Human RT4 bladder transitional bladder cancer cells; experiment: cytotoxicity in RT4 cells, sulforhodamine B assay; assay type: cell-based
[5] = tested on: multiple human tumor cells; conditions: treatment for 3 hours; cited from earlier work
[6] = retention of PLGA microparticles in peritoneal cavity; assay type: in vivo, mice; conditions: intraperitoneal administration; at 24 hours
Description: Localization and disposition of PLGA microparticles within the peritoneal cavity after intraperitoneal administration was studied using rhodamine-loaded fluorescence microparticles. The disposition was compared with that of rhodamine in solution.

[7] = tested on: peritoneal cancer; conditions: intraperitoneal administration in patients; cited from earlier work

**Q.** For `CC(=O)O[C@H]1C(=O)[C@@]2(C)[C@H]([C@H](OC(=O)c3ccccc3)[C@]3(O)C[C@H](OC(=O)[C@H](O)[C@@H](NC(=O)c4ccccc4)c4ccccc4)C(C)=C1C3(C)C)[C@]1(OC(C)=O)CO[C@@H]1C[C@@H]2O` [paclitaxel], which IC50 [1] is on record?
**A.** The IC50 was 0.7 nM.

**Q.** What about the IC50 [2] of the same molecule?
**A.** The IC50 was 0.7 nM.

**Q.** And the IC50 [3]?
**A.** Its IC50 is 1.5 nM.

**Q.** And the IC50 ([4]; RT-4, 48 h, RT4, 48 hour treatment, immediate effect)?
**A.** The IC50 was 11 ± 0.4 nM.

**Q.** And the IC50 ([4]; RT-4, 96 h, RT4, 96 hour treatment, immediate effect)?
**A.** Its IC50 is 4 ± 0.4 nM.

**Q.** And the IC50 ([4]; RT-4, RT4, 15 minute treatment, delayed effect measured at 96 hours)?
**A.** Its IC50 is 157 ± 6.6 nM.

**Q.** What about the IC50 ([4]; RT-4, RT4, 2 hour treatment, delayed effect measured at 96 hours) of the same molecule?
**A.** Its IC50 is 33 ± 4.8 nM.

**Q.** What about the “concentration sufficient to induce apoptosis” value [5] of the same molecule?
**A.** The value was 200 nM.

**Q.** Which “localization in the peritoneal cavity (fluorescence)” value [6] does the source give for `CCN(CC)c1ccc2c(-c3ccccc3C(=O)O)c3ccc(=[N+](CC)CC)cc-3oc2c1` [rhodamine in solution, rhodamine] here?
**A.** Its value is “could no longer be observed in the peritoneal cavity”.

**Q.** With `N.N.[Cl][Pt][Cl]` [cisplatin] as the molecule, how does the “extension of survival time” value [7] read?
**A.** The value was “about 20%”.
